Reference: ChEMBL document CHEMBL1130740, “Sugar-substituted 2-azetidinone cholesterol absorption inhibitors: enhanced potency by modification of the sugar” (1998)

Legend:
Type in all cases: functional, Cricetulus griseus
Cricetinae gen. sp. [1] = experiment: Compound was tested for percent reduction of liver cholesterol esters absorption in cholesterol fed hamster model at a dose of 3 mg/kg/day
Cricetinae gen. sp. [2] = experiment: Dose required to inhibit cholesterol absorption in cholesterol fed hamster model
Cricetinae gen. sp. [3] = experiment: Compound was tested for percent reduction of serum cholesterol absorption in cholesterol fed hamster model at a dose of 3 mg/kg/day

Row | SMILES | Reduction (Cricetinae gen. sp. [1]) [%] | ED50 (Cricetinae gen. sp. [2]) [mg/kg/day] | Reduction (Cricetinae gen. sp. [3]) [%]
1 | COC(=O)[C@H]1O[C@@H](Oc2ccc([C@@H]3[C@@H](CC[C@H](O)c4ccc(F)cc4)C(=O)N3c3ccc(F)cc3)cc2)[C@H](O)[C@@H](O)[C@@H]1O | -89 | 0.04 | -48
2 | COC(=O)[C@H]1O[C@@H](Oc2ccc([C@@H]3[C@@H](CC[C@H](OC(C)=O)c4ccc(F)cc4)C(=O)N3c3ccc(F)cc3)cc2)[C@H](OC(C)=O)[C@@H](OC(C)=O)[C@@H]1OC(C)=O | -96 | 0.09 | -53
3 | O=C1[C@H](CC[C@H](O)c2ccc(F)cc2)[C@@H](c2ccc(O[C@@H]3O[C@H](CO)[C@@H](O)[C@H](O)[C@H]3O)cc2)N1c1ccc(F)cc1 | -92 | 0.08 | -48
4 | O=C(O)[C@H]1O[C@@H](Oc2ccc([C@@H]3[C@@H](CC[C@H](O)c4ccc(F)cc4)C(=O)N3c3ccc(F)cc3)cc2)[C@H](O)[C@@H](O)[C@@H]1O | -95 | 0.17 | -50
5 | CC(=O)OC[C@H]1O[C@@H](Oc2ccc([C@@H]3[C@@H](CC[C@H](OC(C)=O)c4ccc(F)cc4)C(=O)N3c3ccc(F)cc3)cc2)[C@H](OC(C)=O)[C@@H](OC(C)=O)[C@@H]1OC(C)=O | -58 | – | -14
6 | O=C1[C@H](CC[C@H](O)c2ccc(F)cc2)[C@@H](c2ccc(O[C@@H]3O[C@H](CO)[C@@H](O[C@@H]4O[C@H](CO)[C@@H](O)[C@H](O)[C@H]4O)[C@H](O)[C@H]3O)cc2)N1c1ccc(F)cc1 | -90 | 0.01 | -36
7 | CC(=O)OC[C@H]1O[C@@H](O[C@H]2[C@H](OC(C)=O)[C@@H](OC(C)=O)[C@H](Oc3ccc([C@@H]4[C@@H](CC[C@H](OC(C)=O)c5ccc(F)cc5)C(=O)N4c4ccc(F)cc4)cc3)O[C@@H]2COC(C)=O)[C@H](OC(C)=O)[C@@H](OC(C)=O)[C@@H]1OC(C)=O | -75 | – | -43
8 | O=C1[C@H](CC[C@H](O)c2ccc(F)cc2)[C@@H](c2ccc(O)cc2)N1c1ccc(F)cc1 [EZETIMIBE] | -93 | 0.04 | -43
9 | COc1ccc([C@@H]2[C@@H](CCCc3ccccc3)C(=O)N2c2ccc(OC)cc2)cc1 [SCH-48461] | – | 2 | –
